Data from patent US7973039B2, “Sulfonyl amino cyclic derivatives and use thereof” (Merck Serono SA, priority 2004, dated 2011).

What was measured:
[1] = biological target: T1, collagenase (MMP-1) (Homo sapiens, UniProt P03956); experiment: MMP-1 enzyme inhibition assay (coumarin-labelled peptide substrate McaPLGLDpaAR); assay type: biochemical; conditions: fluorogenic substrate McaPLGLDpaAR, 37° C., 2 hours
T1 sequence (P03956 100-469): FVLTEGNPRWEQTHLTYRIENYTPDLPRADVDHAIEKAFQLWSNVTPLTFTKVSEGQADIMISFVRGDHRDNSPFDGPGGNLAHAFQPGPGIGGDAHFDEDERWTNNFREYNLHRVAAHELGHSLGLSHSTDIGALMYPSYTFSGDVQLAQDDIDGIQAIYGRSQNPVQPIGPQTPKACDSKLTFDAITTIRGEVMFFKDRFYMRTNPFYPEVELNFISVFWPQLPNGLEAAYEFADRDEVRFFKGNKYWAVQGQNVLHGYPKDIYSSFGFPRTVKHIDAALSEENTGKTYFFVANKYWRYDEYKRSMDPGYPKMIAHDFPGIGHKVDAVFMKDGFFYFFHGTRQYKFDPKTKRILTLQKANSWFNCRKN
Description: (§1) Compounds of the invention were tested to assess their activities as inhibitors of MMP-1, MMP-2, MMP-9 and MMP-12.
(§2) Stock solutions were made up as follows: Assay Butter: 100 mM Tris-HCl pH 7.6 containing 100 mM NaCl, 10 mM CaCl2, and 0.05% Brij 35.
Substrate: 0.4 mM McaPLGLDpaAR (from Bachem) (0.437 mg/ml) stock solution in 100% DMSO (stored at −20° C.). Dilute to 8 μM in assay butter.
Enzyme: Recombinant human 92 kDa gelatinase (MMP-9; APMA (4-aminophenyl mercuric acetate)—activated if necessary) appropriately diluted in assay butter.
(§3) Test Compounds were prepared initially as 10 mM compound solution in 100% DMSO, diluted to 1 mM in 100% DMSO, then serially diluted 3-fold in 100% DMSO across columns 1-10 of a 96-well microtitre plate Assay concentration range, 100 μM (column 1) to 5.1 nM (column 10).
(§4) The assay was performed in a total volume of 100 μL per well in 96-well microtitre plates. Activated enzyme (20 μL) was added to the wells followed by 20 μL of assay butter. Appropriate concentrations of test compounds dissolved in 10 μL of DMSO were then added followed by 50 μL of McaPLGLDpaAR (8 μM, prepared by dilution of DMSO stock in assay butter). For each as say ten concentrations of test compound were examined in duplicate. Control wells lack either enzyme or test compound. The reactions were incubated at 37° C. for 2 hours. The fluorescence at 405 nm was measured immediately with an SLT Fluostar fluorometer (SL T Labinstruments GmbH, Grödig, Austria) using 320 nm excitation, without stopping the reaction.
(§5) The effect of the test compound was determined from the dose response curve generated by the 10 duplicate concentrations of inhibitor. The IC50 (the concentration of compound required to give a 50% decrease in enzyme activity) was obtained by fitting data to the equation, Y=a+((b−a)/(1+(c/X)^d)). (Y=inhibition achieved for a particular dose; X=the dose in nM; a=minimum y or zero % inhibition; b=maximum y or 100% inhibition; c=is the IC50; d=is the slope). The result was rounded to one significant figure.
Compounds of the invention were tested for inhibitory activity against collagenase (MMP-1) in an assay using a coumarin-labelled peptide substrate, (7-methoxycoumarin-4-yl)acetyl-Pro-Leu-Gly-Leu-(3-[2,4-dinitrophenyl]-L-2,3diaminopropionyl)-Ala-Arg-NH2 (McaPLGLDpaAR) (Knight et al, 1992, above). The protocol for this assay was as described for the MMP-9 assay above.

[2] = biological target: metalloelastase (MMP-12) (Homo sapiens, UniProt P39900); experiment: MMP-12 enzyme inhibition assay (coumarin-labelled peptide substrate McaPLGLDpaAR); assay type: biochemical; conditions: fluorogenic substrate McaPLGLDpaAR, 37° C., 2 hours
Chain of metalloelastase (MMP-12) (P39900 106-470): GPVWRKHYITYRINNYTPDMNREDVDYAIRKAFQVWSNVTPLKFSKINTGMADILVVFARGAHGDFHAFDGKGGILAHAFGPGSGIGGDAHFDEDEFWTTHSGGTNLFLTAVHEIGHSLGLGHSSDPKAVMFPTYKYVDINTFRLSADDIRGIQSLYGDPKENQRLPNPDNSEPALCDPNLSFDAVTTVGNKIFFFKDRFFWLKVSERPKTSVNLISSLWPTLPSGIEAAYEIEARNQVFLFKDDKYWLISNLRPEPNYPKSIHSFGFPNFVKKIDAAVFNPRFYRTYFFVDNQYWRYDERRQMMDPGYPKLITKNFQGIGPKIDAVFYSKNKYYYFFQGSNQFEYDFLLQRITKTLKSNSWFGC
Description: as §1, §2
Substrate: 0.4 mM McaPLGLDpaAR (from Bachem) (0.437 mg/ml) stock solution in 100% DMSO (stored at −20° C.). Dilute to 8 μM in assay butter. […]
as §3, §4, §5
Compounds of the invention were tested for inhibitory activity against metalloelastase (MMP-12) in an assay using a coumarin-labelled peptide substrate, (7-methoxycoumarin-4-yl)acetyl-Pro-Leu-Gly-Leu-(3-[2,4dinitrophenyl]-L-2,3-diaminopropionyl)-Ala-Arg-NH2 (McaPLGLDpaAR) (Knight et al, 1992, above). The protocol for this assay was as described for the MMP-9 assay above.

[3] = system: IL-2-induced peritoneal recruitment of lymphocytes; experiment: IL-2-induced peritoneal recruitment of lymphocytes; assay type: in vivo, C3H/HEN mice; conditions: Mus musculus, Lymphocyte; mice, route po, given 15 min prior to IL-2 (20 μg/kg i.p.), lymphocytes counted 24 h after IL-2; read-out: ED50 in IL-2-induced peritoneal recruitment of lymphocytes model
Description: Administration of IL-2 intraperitoneally causes migration of lymphocytes into the intraperitoneal cavity. This is a model for the cellular migration that occurs during inflammation.
C3H/HEN mice (Elevage Janvier, France) were intraperitoneally injected with IL-2 (Serono Pharmaceutical Research Institute, 20 μg/kg, in saline).
Compounds of the invention were suspended in 0.5% carboxymethylcellulose (CMC)/0.25% tween-20 and were administered by s.c. or p.o. route (10 ml/kg) 15 min prior to administration of IL-2.
Twenty-four hours after administration of IL-2, peritoneal white blood cells were collected by 3 successive lavages of the peritoneal cavity with 5 ml phosphate buffered saline (PBS)-1 mM EDTA (+4° C.). The suspension was centrifuged (1700 g×10 min at +4° C.). The resulting pellet was suspended in 1 ml PBS-1 mM EDTA.
Lymphocytes were identified and counted using a Beckman/Coulter counter.
The animals were divided into 6 groups (6 mice each group):
Group 1: (baseline) received 0.5% CMC/0.25% tween-20 (vehicle of compound of the invention) and saline (vehicle of IL-2);
Group 2: (control IL-2) received 0.5% CMC/0.25% tween-20 and injection of IL-2;
Group 3: Experimental group (Compound of the invention Dose 1) received a compound of the invention and injection of IL-2; […]
Inhibition of lymphocyte recruitment was calculated as follows: […]

| Structure (SMILES) | IC50 [1] | IC50 [2] | ED50 [3] |
| --- | --- | --- | --- |
| CCCCCC#CC(CS(=O)(=O)N1CCC(c2ccc(OC)cc2)CC1)N(O)C=O (centres unmarked) [Example 19] | > 5000 nM | 18 nM |  |
| O=CN(O)C(C#Cc1ccc(-c2ncon2)cc1)CS(=O)(=O)N1CCN(c2ccc(F)cc2)CC1 (centres unmarked) [Example 27, {1-({[4-(4-fluorophenyl)piperazin-1-yl]sulfonyl}methyl)-3-[4-(1,2,4-oxadiazol-3-yl)phenyl]prop-2-yn-1-yl}hydroxyformamide] | > 5000 nM | 95 nM |  |
| CC(C)(CC#Cc1ccccc1)C(CS(=O)(=O)N1CCN(c2ccc(F)cc2)CC1)N(O)C=O (centres unmarked) [Example 36, [1-({[4-(4-fluorophenyl)piperazin-1-yl]sulfonyl}methyl)-2,2-dimethyl-5-phenylpent-4-yn-1-yl]hydroxyformamide] | > 5000 nM | 20 nM |  |
| CCN(CC)CC#CC(CS(=O)(=O)N1CCC(c2ccc(OC)cc2)CC1)N(O)C=O (centres unmarked) [Example 37, [4-(diethylamino)-1-({[4-(4-methyloxyphenyl)piperidin-1-yl]sulfonyl}methyl)but-2-yn-1-yl]hydroxyformamide] | > 5000 nM | 6 nM |  |
| CCCCCC#CC(CS(=O)(=O)N1CCCN(c2ccc(OCC)cc2)CC1)N(O)C=O (centres unmarked) [Example 61, [1-({[4-(4-ethyloxyphenyl)-1,4-diazepan-1-yl]sulfonyl}methyl)oct-2-yn-1-yl]hydroxyformamide] | > 5000 nM | 24 nM |  |
| O=CN(O)C(C#CCN1CCCC1)CS(=O)(=O)N1CCN(c2ccc(F)cc2)CC1 (centres unmarked) [Example 64, [1-({[4-(4-fluorophenyl)piperazin-1-yl]sulfonyl}methyl)-4-pyrrolidin-1-ylbut-2-yn-1-yl]hydroxyformamide] | > 5000 nM | 40 nM |  |

Second part, led by results:

| IC50 [1] | IC50 [2] | Structure (SMILES) | ED50 [3] |
| --- | --- | --- | --- |
| > 5000 nM | 46 nM | O=CN(O)C(C#Cc1ccc2c(c1)OCO2)CS(=O)(=O)N1CCN(c2ccc(F)cc2)CC1 (centres unmarked) [Example 1, 3-(1,3-benzodioxol-5-yl)-1 ({[4-(4-fluorophenyl)-1-piperazinyl]sulfonyl}methyl)-2-propynyl(hydroxy)formamide] | 0.8 mg/kg |
| > 5000 nM | 58 nM | O=CN(O)C(C#Cc1ccccc1)CS(=O)(=O)N1CCN(c2ccc(F)cc2)CC1 (centres unmarked) [Example 4, 1-({[4-(4-fluorophenyl)-1-piperazinyl]sulfonyl}methyl)-3-phenyl-2-propynyl(hydroxy)formamide] |  |
| > 5000 nM | 21 nM | O=CN(O)C(C#CCc1ccccc1)CS(=O)(=O)N1CCN(c2ccc(F)cc2)CC1 (centres unmarked) [Example 6, 1-({[4-(4-fluorophenyl)-1-piperazinyl]sulfonyl}methyl)-4-phenyl-2-butynyl (hydroxy)formamide] |  |
| > 5000 nM | 20 nM | CCCCCC#CC(CS(=O)(=O)N1CCN(c2ccc(F)cc2)CC1)N(O)C=O (centres unmarked) [Example 7, 1-({[4-(4-fluorophenyl)-1-piperazinyl]sulfonyl}methyl)-2-octynyl(hydroxy)formamide] | 2 mg/kg |
| > 5000 nM | 48 nM | COc1ccc(N2CCN(S(=O)(=O)CC(C#Cc3cccnc3)N(O)C=O)CC2)cc1 (centres unmarked) [Example 9, hydroxy[1-({[4-(4-methoxyphenyl)-1-piperazinyl]sulfonyl}methyl)-3-(3-pyridinyl)-2-propynyl]formamide] |  |
| > 5000 nM | 33 nM | COc1ccc(N2CCN(S(=O)(=O)CC(C#Cc3cccc(OC)c3)N(O)C=O)CC2)cc1 (centres unmarked) [Example 10, hydroxy[3-(3-methoxyphenyl)-1-({[4-(4-methoxyphenyl)-1-piperazinyl]sulfonyl}methyl)-2-propynyl]formamide] |  |
